Laboratory results published in patent publication US12662491B2 (Redona Therapeutics, Inc., priority 2020, dated 2026).
pIC50: −log10 of the molar value.

target: T1, Zcchc11 enzyme (Homo sapiens, UniProt Q5TAX3); assay: TUTase assay (Zcchc11 assay, Lin28a-dependent polyuridylation of pre-let-7); assay type: biochemical; settings: Lin28a-dependent Zcchc11 (Z11) TUTase activity; read-out: Potency Lin28a-dep Z11 IC50
T1 construct: made in house; host or cells: HEK293 cells (Zcchc11); E. coli Rosetta II (LIN28A)
T1 sequence (Q5TAX3 212-1420): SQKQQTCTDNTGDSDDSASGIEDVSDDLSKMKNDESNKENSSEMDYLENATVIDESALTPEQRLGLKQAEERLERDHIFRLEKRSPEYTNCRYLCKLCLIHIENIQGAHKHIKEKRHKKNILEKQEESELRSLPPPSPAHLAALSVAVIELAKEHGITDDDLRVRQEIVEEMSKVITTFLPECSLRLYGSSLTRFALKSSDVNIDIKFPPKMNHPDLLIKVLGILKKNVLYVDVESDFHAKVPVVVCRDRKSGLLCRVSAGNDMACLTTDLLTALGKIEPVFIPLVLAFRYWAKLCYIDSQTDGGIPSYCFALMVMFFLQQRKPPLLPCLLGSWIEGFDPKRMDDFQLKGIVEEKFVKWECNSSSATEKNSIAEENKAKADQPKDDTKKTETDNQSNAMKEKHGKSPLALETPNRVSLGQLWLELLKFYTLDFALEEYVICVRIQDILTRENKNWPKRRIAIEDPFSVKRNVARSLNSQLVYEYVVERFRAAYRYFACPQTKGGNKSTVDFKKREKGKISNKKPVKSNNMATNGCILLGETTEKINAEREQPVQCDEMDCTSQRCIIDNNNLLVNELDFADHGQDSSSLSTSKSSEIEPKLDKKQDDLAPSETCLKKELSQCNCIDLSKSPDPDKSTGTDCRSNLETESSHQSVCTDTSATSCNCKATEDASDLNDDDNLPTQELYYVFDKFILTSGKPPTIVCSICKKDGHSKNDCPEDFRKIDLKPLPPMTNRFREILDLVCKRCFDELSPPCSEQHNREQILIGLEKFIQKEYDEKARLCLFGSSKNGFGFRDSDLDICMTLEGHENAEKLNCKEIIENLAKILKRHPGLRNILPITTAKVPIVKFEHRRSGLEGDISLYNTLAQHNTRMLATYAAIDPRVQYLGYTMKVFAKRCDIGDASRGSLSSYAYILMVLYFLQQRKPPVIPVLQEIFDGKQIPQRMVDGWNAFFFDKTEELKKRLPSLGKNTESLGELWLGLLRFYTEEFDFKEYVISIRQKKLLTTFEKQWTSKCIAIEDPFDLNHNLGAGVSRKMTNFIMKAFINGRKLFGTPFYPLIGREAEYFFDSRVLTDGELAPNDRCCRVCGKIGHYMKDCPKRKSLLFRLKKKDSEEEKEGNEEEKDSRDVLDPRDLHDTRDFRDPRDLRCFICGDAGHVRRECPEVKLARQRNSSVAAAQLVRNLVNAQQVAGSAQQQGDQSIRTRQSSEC
How it was run: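 Readout: time-dependent quench of 5′-fluorescein pre-let-7 (2 nM) as 3′-rhodamine A20 probe anneals to poly(U) tails. Enzyme 0.2 nM Zcchc11 (res. 212-1420), LIN28A 10 nM, UTP 5 uM; pH 7.3 HEPES, 150 mM KCl, 5 mM MgCl2, RT. 4-parameter IC50; 100% = DMSO, 0% = no UTP.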

| Structure (SMILES) | pIC50 |
| --- | --- |
| COc1ccc(-n2cc(C(=O)O)c(=O)c3cc(F)c(N4CCC[C@@H]4COc4ccccn4)cc32)cc1 [Compound 147, (R)-6-fluoro-1-(4-methoxy-phenyl)-4-oxo-7-(2-((pyridin-2-yloxy)methyl)pyrrolidin-1-yl)-1,4-dihydro-quinoline-3-carboxylic acid] | ≥ 6.00 |
| Cn1cc(-n2cc(C(=O)O)c(=O)c3cc(C#N)c(N4CCC[C@@H]4COc4ncccc4F)nc32)cn1 (racemic) [Compound 183, rac-(R)-6-cyano-7-(2-(((3-fluoropyridin-2-yl)oxy)methyl)pyrrolidin-1-yl)-1-(1-methyl-1H-pyrazol-4-yl)-4-oxo-1,4-dihydro-1,8-naphthyridine-3-carboxylic acid] | 5.00 to 6.00 |
| O=C(O)c1cn(-c2ccc(O)cc2)c2cc(N3CCC[C@@H]3COc3nccc4cc[nH]c34)c(F)cc2c1=O [Compound 117, (R)-7-(2-(((1H-pyrrolo[2,3-c]pyridin-7-yl)oxy)methyl)pyrrolidin-1-yl)-6-fluoro-1-(4-hydroxy-phenyl)-4-oxo-1,4-dihydro-quinoline-3-carboxylic acid] | ≥ 6.00 |

Continued, values first:

| pIC50 | Structure (SMILES) |
| --- | --- |
| ≥ 6.00 | CN(C)C1CN(c2ccc(-n3cc(C(=O)O)c(=O)c4cc(Cl)c(N5CCC(C)(C)C5COc5nc(OC6CC6)ccc5Cl)cc43)cn2)C1 (centres unmarked) [Compound 272, 6-chloro-7-(2-(((3-chloro-6-cycloprop-oxypyridin-2-yl)oxy)methyl)-3,3-dimethyl-pyrrolidin-1-yl)-1-(6-(3-(dimethyl-amino)azetidin-1-yl)pyridin-3-yl)-4-oxo-1,4-dihydro-quinoline-3-carboxylic acid] |
| ≥ 6.00 | COCCN(C)C1CN(c2ccc(-n3cc(C(=O)O)c(=O)c4cc(F)c(N5CCC[C@@H]5COc5ncccc5Cl)cc43)cn2)C1 [Compound 278, (R)-7-(2-(((3-chloropyridin-2-yl)oxy)methyl)pyrrolidin-1-yl)-6-fluoro-1-(6-(3-((2-methoxyethyl) (methyl)amino)azetidin-1-yl)pyridin-3-yl)-4-oxo-1,4-dihydro-quinoline-3-carboxylic acid] |
| 5.00 to 6.00 | CN(C)C1CN(c2ccc(-n3cc(C(=O)O)c(=O)c4cc(Cl)c(N5CCCC5)cc43)cn2)C1 [Compound 295, C6-chloro-1-(6-(3-(dimethyl-amino)azetidin-1-yl)pyridin-3-yl)-4-oxo-7-(pyrrolidin-1-yl)-1,4-dihydro-quinoline-3-carboxylic acid] |
| 5.00 to 6.00 | COc1ccc(Cl)c(OCC23CC(CN2c2cc4c(cc2Cl)c(=O)c(C(=O)O)cn4-c2ccc(N4CC(N(C)C)C4)nc2)C3)n1 [Compound 258, 6-chloro-7-(1-(((3-chloro-6-methoxy-pyridin-2-yl)oxy)methyl)-2-azabicyclo [2.1.1]hexan-2-yl)-1-(6-(3-(dimethyl-amino)azetidin-1-yl)pyridin-3-yl)-4-oxo-1,4-dihydro-quinoline-3-carboxylic acid] |

same assay, conditions: Lin28a-dependent Zcchc11 (Z11) TUTase assay; read-out: Potency Lin28a-dep Z11 IC50

| Structure (SMILES) | pIC50 |
| --- | --- |
| Cc1cc(O)ccc1-n1cc(C(=O)O)c(=O)c2cc(F)c(N3CCC[C@@H]3COc3ccccn3)cc21 [Example 396, (R)-6-fluoro-1-(4-hydroxy-2-methylphenyl)-4-oxo-7-(2-((pyridin-2-yloxy)methyl)pyrrolidin-1-yl)-1,4-dihydroquinoline-3-carboxylic acid] | 5.00 to 6.00 |
| N#Cc1cc2c(=O)c(C(=O)O)cn(-c3cnn(CCN4CCC4)c3)c2cc1N1CCC[C@@H]1COc1ncccc1Cl [Example 571, (R)-1-(1-(2-(azetidin-1-yl)ethyl)-1H-pyrazol-4-yl)-7-(2-(((3-chloropyridin-2-yl)oxy)methyl)pyrrolidin-1-yl)-6-cyano-4-oxo-1,4-dihydroquinoline-3-carboxylic acid] | ≥ 6.00 |
| CS(=O)(=O)Nc1cnc(-n2cc(C(=O)O)c(=O)c3cc(Cl)c(N4CCC[C@@H]4COc4ncccc4Cl)cc32)cn1 [Example 493, (R)-6-chloro-7-(2-(((3-chloropyridin-2-yl)oxy)methyl)pyrrolidin-1-yl)-1-(5-(methyl-sulfonamido)pyrazin-2-yl)-4-oxo-1,4-dihydroquinoline-3-carboxylic acid] | ≥ 6.00 |
| O=C(O)c1cn(-c2ccc(F)cc2)c2cc(N3CCC[C@@H]3COc3ccccn3)c(F)cc2c1=O [Example 378, (R)-6-fluoro-1-(4-fluorophenyl)-4-oxo-7-(2-((pyridin-2-yloxy)methyl)pyrrolidin-1-yl)-1,4-dihydroquinoline-3-carboxylic acid] | ≥ 6.00 |
| COCCNc1ccc(-n2cc(C(=O)O)c(=O)c3cc(I)c(N4CCC[C@@H]4COc4ncccc4Cl)cc32)cn1 [Example 558, (R)-7-(2-(((3-chloropyridin-2-yl)oxy)methyl)pyrrolidin-1-yl)-6-iodo-1-(6-((2-methoxyethyl)amino)pyridin-3-yl)-4-oxo-1,4-dihydroquinoline-3-carboxylic acid] | ≥ 6.00 |
| O=C(O)c1cn(-c2ccc3c(c2)CCOC3)c2cc(N3CCC[C@@H]3COc3ncccc3Cl)c(Cl)cc2c1=O [Example 445, (R)-6-chloro-7-(2-(((3-chloropyridin-2-yl)oxy)methyl)pyrrolidin-1-yl)-1-(isochroman-6-yl)-4-oxo-1,4-dihydroquinoline-3-224 carboxylic acid] | ≥ 6.00 |
| O=C(O)c1cn(-c2ccc(O)cc2)c2cc(N3CCC[C@@H]3COc3ccccn3)c(F)cc2c1=O [Example 382, (R)-6-fluoro-1-(4-hydroxyphenyl)-4-oxo-7-(2-((pyridin-2-yloxy)methyl)pyrrolidin-1-yl)-1,4-dihydroquinoline 3-carboxylic acid] | ≥ 6.00 |
| O=C(O)c1cn(-c2cnc(OCc3ccccc3)cn2)c2cc(N3CCC[C@@H]3COc3ncccc3Cl)c(Cl)cc2c1=O [Example 503, (R)-1-(5-(benzyloxy)pyrazin-2-yl)-6-chloro-7-(2-(((3-chloropyridin-2-yl)oxy)methyl)pyrrolidin-1-yl)-4-oxo-1,4-dihydroquinoline-3-carboxylic acid] | 5.00 to 6.00 |
| O=C(O)c1cn(C2CC(O)C2)c2cc(N3CCC[C@@H]3COc3ccccn3)c(F)cc2c1=O (stereo partly drawn) [Example 452, (R)-6-fluoro-1-(3-hydroxycyclo-butyl)-4-oxo-7-(2-((pyridin-2-yloxy)methyl)pyrrolidin-1-yl)-1,4-dihydroquinoline-3-carboxylic acid] | 5.00 to 6.00 |
| CN(C)CCOc1ccc(-n2cc(C(=O)O)c(=O)c3cc(Cl)c(N4CCC[C@@H]4COc4ncccc4Cl)cc32)cn1 [Example 418, (R)-6-chloro-7-(2-(((3-chloropyridin-2-yl)oxy)methyl)pyrrolidin-1-yl)-1-(6-(2-(dimethylamino)ethoxy)pyridin-3-yl)-4-oxo-1,4-dihydroquinoline-3-carboxylic acid] | ≥ 6.00 |

The remaining lines, values ahead:

| pIC50 | Structure (SMILES) |
| --- | --- |
| ≥ 6.00 | CN(C)C1CN(c2ccc(-n3cc(C(=O)O)c(=O)c4cc(C#N)c(N5CCC[C@@H]5COc5ncccc5Cl)cc43)cn2)C1 [Example 542, (R)-7-(2-(((3-chloropyridin-2-yl)oxy)methyl)pyrrolidin-1-yl)-6-cyano-1-(6-(3-(dimethylamino)azetidin-1-yl)pyridin-3-yl)-4-oxo-1,4-dihydroquinoline-3-carboxylic acid] |
| ≥ 6.00 | CN(C)C1CN(c2ccc(-n3cc(C(=O)O)c(=O)c4cc(Cl)c(N5C6CC6C[C@@H]5COc5ccccn5)cc43)cn2)C1 (stereo partly drawn) [Example 619, 6-chloro-1-(6-(3-(dimethylamino)azetidin-1-yl)pyridin-3-yl)-4-oxo-7-((3R)-3-((pyridin-2-yloxy)methyl)-2-azabicyclo[3.1.0]hexan-2-yl)-1,4-dihydroquinoline-3-carboxylic acid] |
| ≥ 6.00 | CN(C)[C@@H]1CCN(c2ccc(-n3cc(C(=O)O)c(=O)c4cc(C#N)c(N5CCC[C@@H]5COc5ncccc5Cl)cc43)cn2)C1 [Example 563, 7-((R)-2-(((3-chloropyridin-2-yl)oxy)methyl)pyrrolidin-1-yl)-6-cyano-1-(6-((R)-3-(dimethylamino)pyrrolidin-1-yl)pyridin-3-yl)-4-oxo-1,4-dihydroquinoline-3-carboxylic acid] |
